Measured values published in ChEMBL document CHEMBL4387765, “Rational design, molecular docking and synthesis of novel homopiperazine linked imidazo[1,2-a]pyrimidine derivatives as potent cytotoxic and antimicrobial agents” (Bioorg Med Chem Lett, 2019).
Converted amounts (≈) assume the structure as drawn.

Legend:
SK-OV-3 = experiment: Cytotoxicity against human SKOV3 cells assessed as reduction in cell growth measured after 48 hrs by sulforhodamine B assay; assay type: functional, cell-based; settings: SK-OV-3, 48 h
DU-145 [1] = experiment: Cytotoxicity against human DU145 cells assessed as reduction in cell growth measured after 48 hrs by sulforhodamine B assay; assay type: functional, cell-based; settings: DU-145, 48 h
HeLa [2] = experiment: Cytotoxicity against human HeLa cells assessed as reduction in cell growth measured after 48 hrs by sulforhodamine B assay; assay type: functional, cell-based
A549 = experiment: Cytotoxicity against human A549 cells assessed as reduction in cell growth measured after 48 hrs by sulforhodamine B assay; assay type: functional, cell-based; settings: A549, 48 h
Bacillus subtilis = experiment: Antibacterial activity against Bacillus subtilis MTCC 441 after 24 hrs by serial dilution method; assay type: functional; settings: MTCC 441, 24 h
Priestia megaterium = experiment: Antibacterial activity against Bacillus megaterium MTCC 428 after 24 hrs by serial dilution method; assay type: functional; settings: MTCC 428, 24 h
Escherichia coli = experiment: Antibacterial activity against Escherichia coli MTCC 443 after 24 hrs by serial dilution method; assay type: functional
Pseudomonas sp. = experiment: Antibacterial activity against Pseudomonas sp. 2496 after 24 hrs by serial dilution method; assay type: functional
Candida albicans = experiment: Antifungal activity against Candida albicans MTCC 227 after 72 hrs by serial dilution method; assay type: functional; settings: MTCC 227, 72 h
DU-145 [3] = experiment: Potency index, ratio of etoposide IC50 to test compound IC50 for human DU145 cells; assay type: functional
HeLa [4] = experiment: Potency index, ratio of etoposide IC50 to test compound IC50 for human HeLa cells; assay type: functional

Compound | IC50 (SK-OV-3) | IC50 (DU-145 [1]) | IC50 (HeLa [2]) | IC50 (A549) | MIC (Bacillus subtilis) | MIC (Priestia megaterium) | MIC (Escherichia coli; MTCC 443, 24 h) | MIC (Pseudomonas sp.; Pseudomonas sp., 2496, 24 h) | MIC (Candida albicans) | Ratio IC50 (DU-145 [3]) | Ratio IC50 (HeLa [4]) | MIC (Escherichia coli) | MIC (Pseudomonas sp.)
N#Cc1ccc(S(=O)(=O)N2CCCN(c3ccn4cc(-c5ccc(F)cc5)nc4n3)CC2)cc1 | 22.3 µM | > 300 µM | > 300 µM | > 300 µM | 24.8 µg/mL (≈ 52 µM) | 21.7 µg/mL (≈ 45.5 µM) | 58.6 µg/mL (≈ 123 µM) | 34.2 µg/mL (≈ 71.8 µM) | 68.1 µg/mL (≈ 143 µM) | – | – | – | –
O=C(c1ccc(Cl)cc1)N1CCCN(c2ccn3cc(-c4ccc(F)cc4)nc3n2)CC1 | > 300 µM | 15.2 µM | 8.55 µM | 110 µM | 58.6 µg/mL (≈ 130 µM) | 58.6 µg/mL (≈ 130 µM) | 88.2 µg/mL (≈ 196 µM) | > 100 µg/mL | > 100 µg/mL | – | – | – | –
CC(=O)N1CCCN(c2ccn3cc(-c4ccc(F)cc4)nc3n2)CC1 | 105 µM | > 300 µM | 220 µM | 103 µM | 84.2 µg/mL (≈ 238 µM) | > 100 µg/mL | 0.92 µg/mL (≈ 2.6 µM) | 12.6 µg/mL (≈ 35.7 µM) | 9.8 µg/mL (≈ 27.7 µM) | – | – | – | –
Cc1ccc(S(=O)(=O)N2CCCN(c3ccn4cc(-c5ccc(F)cc5)nc4n3)CC2)cc1[N+](=O)[O-] | > 300 µM | 16.9 µM | > 300 µM | > 300 µM | 34.2 µg/mL (≈ 67 µM) | 58.8 µg/mL (≈ 115 µM) | 4.2 µg/mL (≈ 8.23 µM) | 8.6 µg/mL (≈ 16.8 µM) | 81.6 µg/mL (≈ 160 µM) | – | – | – | –
COc1cccc(S(=O)(=O)N2CCCN(c3ccn4cc(-c5ccc(F)cc5)nc4n3)CC2)c1 | 229 µM | 6.24 µM | 6.54 µM | 4.14 µM | 84.8 µg/mL (≈ 176 µM) | 84.4 µg/mL (≈ 175 µM) | 33.8 µg/mL (≈ 70.2 µM) | 22.1 µg/mL (≈ 45.9 µM) | > 100 µg/mL | 1.57 | 1.13 | – | –
O=C(Cc1ccccc1)N1CCCN(c2ccn3cc(-c4ccc(F)cc4)nc3n2)CC1 | 17.4 µM | > 300 µM | > 300 µM | 262 µM | 38.6 µg/mL (≈ 89.9 µM) | 34.2 µg/mL (≈ 79.6 µM) | 8.4 µg/mL (≈ 19.6 µM) | 10.2 µg/mL (≈ 23.7 µM) | > 100 µg/mL | – | – | – | –
CS(=O)(=O)N1CCCN(c2ccn3cc(-c4ccc(F)cc4)nc3n2)CC1 | > 300 µM | > 300 µM | > 300 µM | 8.41 µM | 28.7 µg/mL (≈ 73.7 µM) | 26.4 µg/mL (≈ 67.8 µM) | 18.4 µg/mL (≈ 47.2 µM) | 34.6 µg/mL (≈ 88.8 µM) | 38.7 µg/mL (≈ 99.4 µM) | – | – | – | –
C[C@@H]1[C@H](O)[C@@H](C)/C=C/C=C/C=C/C=C/C=C/C=C/C=C/[C@H](O[C@@H]2O[C@H](C)[C@@H](O)[C@H](N)[C@@H]2O)C[C@@H]2O[C@](O)(C[C@@H](O)C[C@@H](O)[C@H](O)CC[C@@H](O)C[C@@H](O)CC(=O)O[C@H]1C)C[C@H](O)[C@H]2C(=O)O [AMPHOTERICIN B] | – | – | – | – | – | – | – | – | 8 µg/mL (≈ 8.66 µM) | – | – | – | –
O=C(Cc1cccs1)N1CCCN(c2ccn3cc(-c4ccc(F)cc4)nc3n2)CC1 | 18.8 µM | 65.5 µM | > 300 µM | > 300 µM | 44.2 µg/mL (≈ 101 µM) | 38.6 µg/mL (≈ 88.6 µM) | 3.1 µg/mL (≈ 7.12 µM) | 3.1 µg/mL (≈ 7.12 µM) | 5.6 µg/mL (≈ 12.9 µM) | – | – | – | –
O=C(C1CC1)N1CCCN(c2ccn3cc(-c4ccc(F)cc4)nc3n2)CC1 | 18.8 µM | > 300 µM | > 300 µM | 144 µM | 88.6 µg/mL (≈ 234 µM) | 92.4 µg/mL (≈ 244 µM) | 94.7 µg/mL (≈ 250 µM) | > 100 µg/mL | > 100 µg/mL | – | – | – | –
O=S(=O)(C1CC1)N1CCCN(c2ccn3cc(-c4ccc(F)cc4)nc3n2)CC1 | > 300 µM | 40.4 µM | 33.5 µM | > 300 µM | 48.4 µg/mL (≈ 116 µM) | 64.6 µg/mL (≈ 155 µM) | 34.6 µg/mL (≈ 83.3 µM) | 28.2 µg/mL (≈ 67.9 µM) | 14.6 µg/mL (≈ 35.1 µM) | – | – | – | –
COc1ccc(S(=O)(=O)N2CCCN(c3ccn4cc(-c5ccc(F)cc5)nc4n3)CC2)cc1 | > 300 µM | > 300 µM | > 300 µM | 205 µM | 12.8 µg/mL (≈ 26.6 µM) | 14.6 µg/mL (≈ 30.3 µM) | > 100 µg/mL | 88.2 µg/mL (≈ 183 µM) | 9.4 µg/mL (≈ 19.5 µM) | – | – | – | –
CN(C)S(=O)(=O)N1CCCN(c2ccn3cc(-c4ccc(F)cc4)nc3n2)CC1 | > 300 µM | > 300 µM | > 300 µM | 29.9 µM | 9.6 µg/mL (≈ 22.9 µM) | 10.2 µg/mL (≈ 24.4 µM) | 1.4 µg/mL (≈ 3.35 µM) | 3.8 µg/mL (≈ 9.08 µM) | 8.2 µg/mL (≈ 19.6 µM) | – | – | – | –
O=S(=O)(c1ccc(F)cc1F)N1CCCN(c2ccn3cc(-c4ccc(F)cc4)nc3n2)CC1 | 10 µM | > 300 µM | > 300 µM | > 300 µM | 8.8 µg/mL (≈ 18.1 µM) | 10.4 µg/mL (≈ 21.3 µM) | 4.6 µg/mL (≈ 9.44 µM) | 5.2 µg/mL (≈ 10.7 µM) | > 100 µg/mL | – | – | – | –
COc1cc([C@@H]2c3cc4c(cc3[C@@H](O[C@@H]3O[C@@H]5CO[C@@H](C)O[C@H]5[C@H](O)[C@H]3O)[C@H]3COC(=O)[C@H]23)OCO4)cc(OC)c1O [ETOPOSIDE] | 2.39 µM | 9.8 µM | 7.43 µM | 10.4 µM | – | – | – | – | – | – | – | – | –
GENTAMICIN | – | – | – | – | – | – | – | – | – | – | – | 3 µg/mL | 6 µg/mL
CC1(C)S[C@@H]2[C@H](NC(=O)[C@H](N)c3ccccc3)C(=O)N2[C@H]1C(=O)O [AMPICILLIN] | – | – | – | – | 22 µg/mL (≈ 63 µM) | 22 µg/mL (≈ 63 µM) | – | – | – | – | – | – | –
COC(=O)N1CCCN(c2ccn3cc(-c4ccc(F)cc4)nc3n2)CC1 | 38.7 µM | > 300 µM | 262 µM | 8.02 µM | 35.8 µg/mL (≈ 96.9 µM) | 47.2 µg/mL (≈ 128 µM) | 7.8 µg/mL (≈ 21.1 µM) | 18.6 µg/mL (≈ 50.4 µM) | 81.6 µg/mL (≈ 221 µM) | – | – | – | –
O=C(c1ccc(F)cc1)N1CCCN(c2ccn3cc(-c4ccc(F)cc4)nc3n2)CC1 | 12.7 µM | > 300 µM | 6.12 µM | 194 µM | 34.4 µg/mL (≈ 79.4 µM) | 36.7 µg/mL (≈ 84.7 µM) | 22.8 µg/mL (≈ 52.6 µM) | 38.2 µg/mL (≈ 88.1 µM) | 74.2 µg/mL (≈ 171 µM) | – | 1.31 | – | –
CN(C)C(=O)N1CCCN(c2ccn3cc(-c4ccc(F)cc4)nc3n2)CC1 | 71.5 µM | 10.6 µM | > 300 µM | 5.98 µM | 18.6 µg/mL (≈ 48.6 µM) | 15.8 µg/mL (≈ 41.3 µM) | 0.86 µg/mL (≈ 2.25 µM) | 1.8 µg/mL (≈ 4.71 µM) | 4.6 µg/mL (≈ 12 µM) | – | – | – | –
O=C(C1CCCCC1)N1CCCN(c2ccn3cc(-c4ccc(F)cc4)nc3n2)CC1 | 14.5 µM | 183 µM | 170 µM | 104 µM | > 100 µg/mL | > 100 µg/mL | > 100 µg/mL | 44.2 µg/mL (≈ 105 µM) | > 100 µg/mL | – | – | – | –
